Assay: Gel-forming ability test (heat to dissolve, cool to 25° C.)
Assay type: physicochemical
Conditions: 1 mg gelatinizer in water (900 mg) and methanol (100 mg); heated, gradually cooled, left at room temperature approximately 2-5 hours; tube inverted
Method: The dodecanoylaminophenol-β-D-glucopyranoside and dodecanoylaminophenol-β-D-galactopyranoside (1 mg of each) obtained in the above experiments were respectively weighed out into test tubes, and a mixed solvent of water (900 mg) and methanol (100 mg) was added. The mixture was heated to ensure complete dissolution. Subsequently, it was gradually cooled, and left at room temperature for approximately 2-5 hours.
The gel-forming ability was evaluated as follows.
The solvent was water (including a small amount of methanol and ethanol), methanol, ethanol, 1-butanol, t-butanol, tetrahydrofuran, chloroform, dichloromethane, n-hexane, ethyl acetate, dimethylformamide or dimethyl sulfoxide.
One of the aforesaid solvents was mixed in a test tube wherein the two types of gelatinizer prepared in the Examples were sealed such that the concentration of gelatinizer was 0.1-3.0 wt %, and this mixture was heated until the solids dissolved. The resulting solution was cooled to 25° C. for one hour. The gelatinizer and solvent were introduced into a test tube capped by a diaphragm, and heated in the oil bath until the solids dissolved. This solution was cooled to 25° C.

With “dodecanoylaminophenol-β-D-glucopyranoside” the hydrated gel formation was “hydrated gel which did not collapse even when inverted”.

With “dodecanoylaminophenol-β-D-galactopyranoside” the hydrated gel formation was “hydrated gel which did not collapse even when inverted”.
